# ± gives the standard deviation of the averaged measurements.
# Tests used:
# Assay in all cases: level (log10 ratio to DMSO vehicle control); higher = higher biomarker level / cell amount than vehicle control
# Conditions in all cases: in DMSO
# [1] = compound: N=C(N)C(F)(F)C(F)(F)C(F)(F)C(F)(F)C(F)(F)C(F)(F)C(F)(F)F [Perfluorooctanamidine]
# Description: (§1)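 BioMAP Diversity Plus panel of 12 human primary cell co-culture systems (3C, 4H, LPS, SAg, BT, BF4T, BE3C, CASM3C, HDF3CGF, KF3CT, MyoF, Mphg). Compounds were added 1 h before stimulation and left for 24 h (MyoF 48 h; BT 72 h for soluble read-outs or 6 d for IgG). Biomarkers were read by ELISA, cytotoxicity by SRB, PBMC viability and proliferation by Alamar Blue. Each well value was divided by the mean of 8 DMSO control wells on the same plate and log10 transformed; duplicate blinded samples were tested at 4 concentrations.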
# [2] = compound: CNS(=O)(=O)C(F)(F)C(F)(F)C(F)(F)C(F)(F)C(F)(F)C(F)(F)C(F)(F)C(F)(F)F [N-Methylperfluorooctanesulfonamide]
# Description: as §1
# [3] = compound: C=CC(=O)OCCC(F)(F)C(F)(F)C(F)(F)C(F)(F)F [2-(Perfluorobutyl)ethyl acrylate]
# Description: as §1
# [4] = compound: O=C(O)C(F)(F)C(F)(F)C(F)(F)C(F)(F)C(F)(F)C(F)(F)C(F)(F)C(F)(F)C(F)(F)C(F)(F)C(F)(F)C(F)(F)C(F)(F)F [Perfluorotetradecanoic acid]
# Description: as §1
# [5] = compound: CC(C)(C)C(=O)CC(=O)C(F)(F)C(F)(F)C(F)(F)F [(Heptafluorobutanoyl)pivaloylmethane]
# Description: as §1
# [6] = compound: O=C(O)C(F)(F)C(F)(F)C(F)(F)C(F)(F)C(F)(F)F [Perfluorohexanoic acid]
# Description: as §1
# [7] = compound: OCC(F)(F)C(F)(F)C(F)(F)F [1H,1H-Heptafluorobutanol]
# Description: as §1
Test System,level (log10) ([1]; 6700 nM),level (log10) ([1]; 20000 nM),level (log10) ([1]; 60000 nM),level (log10) ([2]; 6700 nM),level (log10) ([2]; 20000 nM),level (log10) ([2]; 60000 nM),level (log10) ([3]; 6700 nM),level (log10) ([3]; 20000 nM),level (log10) ([3]; 60000 nM),level (log10) ([4]; 6700 nM),level (log10) ([4]; 20000 nM),level (log10) ([5]; 6700 nM),level (log10) ([5]; 20000 nM),level (log10) ([5]; 60000 nM),level (log10) ([6]; 6700 nM),level (log10) ([6]; 20000 nM),level (log10) ([6]; 60000 nM),level (log10) ([7]; 6700 nM),level (log10) ([7]; 20000 nM),level (log10) ([7]; 60000 nM)
BE3C:SRB,-0.0075 ± 0.005,-0.001 ± 0.016,0.009,-0.0085 ± 0.00071,-0.014 ± 0.0085,0.0005 ± 0.029,-0.0035 ± 0.005,-0.0055 ± 0.0021,-0.0015 ± 0.0021,-0.005 ± 0.0057,0.0035 ± 0.012,-0.0035 ± 0.0035,-0.0035 ± 0.00071,-0.0075 ± 0.019,-0.001,-0.006 ± 0.0014,0.009 ± 0.018,-0.0115 ± 0.0078,-0.0045 ± 0.011,-0.0005 ± 0.0064
BE3C:MMP-9,-0.0115 ± 0.005,-0.015 ± 0.023,-0.001,-0.094 ± 0.0014,-0.11 ± 0.0057,-0.102 ± 0.0064,-0.004 ± 0.0071,-0.006 ± 0.0014,-0.028 ± 0.0085,-0.033 ± 0.071,-0.04 ± 0.065,-0.0145 ± 0.018,0.004 ± 0.0014,-0.032 ± 0.04,-0.0155 ± 0.018,-0.005 ± 0.0071,0.0145 ± 0.013,0.002 ± 0.0042,0.0015 ± 0.0064,0.0175 ± 0.033
HDF3CGF:CXCL11/I-TAC,0.024 ± 0.025,0.0285 ± 0.029,-0.119,-0.0385 ± 0.015,-0.069 ± 0.0071,-0.0495 ± 0.011,-0.045 ± 0.062,-0.124 ± 0.023,-0.317 ± 0.087,0.0165 ± 0.015,-0.0705 ± 0.08,0.012 ± 0.014,-0.0155 ± 0.005,-0.06 ± 0.013,0.0045 ± 0.005,0.0005 ± 0.021,-0.021 ± 0.031,-0.0135 ± 0.022,-0.0185 ± 0.011,-0.031 ± 0.061
3C:CD106/VCAM-1,-0.017 ± 0.028,-0.037 ± 0.031,-0.088,-0.03 ± 0.038,0.049 ± 0.024,-0.0295 ± 0.012,-0.0335 ± 0.005,-0.0715 ± 0.039,-0.14 ± 0.04,-0.014 ± 0.016,-0.0155 ± 0.0078,0.0015 ± 0.00071,-0.0045 ± 0.026,0.019 ± 0.018,-0.002 ± 0.018,-0.0025 ± 0.029,0.005 ± 0.044,0.008 ± 0.033,0.018 ± 0.025,0.001 ± 0.037
3C:CD142/Tissue Factor,-0.02 ± 0.018,-0.0105 ± 0.012,-0.014,-0.128 ± 0.0057,-0.108 ± 0.031,-0.106 ± 0.012,-0.0105 ± 0.043,-0.127 ± 0.034,-0.381 ± 0.016,0.0275 ± 0.0078,0.0665 ± 0.018,-0.0205 ± 0.015,-0.0235 ± 0.005,-0.053 ± 0.014,0.011 ± 0.0085,-0.0135 ± 0.0092,0.0005 ± 0.012,-0.0065 ± 0.021,0.0105 ± 0.015,0.026 ± 0.025
MyoF:Collagen III,-0.0045 ± 0.015,0.003 ± 0.017,0.006,-0.0185 ± 0.016,-0.007 ± 0.018,-0.0175 ± 0.005,-0.009 ± 0.016,-0.006 ± 0.0028,-0.0265 ± 0.013,-0.015,-0.002 ± 0.03,-0.0115 ± 0.0021,-0.002 ± 0.013,0.026 ± 0.0028,0.0075 ± 0.012,0.003 ± 0.02,0.0105 ± 0.0092,0.0065 ± 0.0035,-0.0065 ± 0.005,-0.0065 ± 0.0064
MyoF:MMP-1,-0.025 ± 0.024,-0.01,0.062,-0.036 ± 0.013,-0.0325 ± 0.018,0.008 ± 0.02,0.0005 ± 0.0092,0.024 ± 0.017,0.0405 ± 0.012,-0.0305 ± 0.015,0.002 ± 0.017,-0.036 ± 0.013,-0.0255 ± 0.025,0.025 ± 0.058,-0.0115 ± 0.0035,-0.0055 ± 0.019,0.0235 ± 0.025,-0.031 ± 0.0057,-0.019 ± 0.011,0.012 ± 0.081
lMphg:CD62E/E-Selectin,0.0065 ± 0.042,0.0655 ± 0.015,0.049,-0.12 ± 0.034,-0.214 ± 0.03,-0.182 ± 0.058,0.01 ± 0.0071,-0.006 ± 0.0099,0.001 ± 0.0042,0.0125 ± 0.03,-0.006 ± 0.044,-0.017,-0.0085 ± 0.012,-0.0525 ± 0.011,0.0025 ± 0.016,0 ± 0.0014,-0.014 ± 0.0042,-0.0085 ± 0.021,0.001 ± 0.017,0 ± 0.045
CASM3C:CXCL8/IL-8,0.011 ± 0.017,0.0075 ± 0.0092,0.053,-0.003 ± 0.017,0.012 ± 0.025,0.035 ± 0.021,-0.0045 ± 0.0064,-0.009 ± 0.0014,-0.028 ± 0.014,0.012 ± 0.016,0.016 ± 0.028,-0.006 ± 0.0042,-0.018 ± 0.0028,-0.0045 ± 0.025,0.0005 ± 0.021,0.007 ± 0.0099,0.0265 ± 0.028,0.007 ± 0.0099,0.0045 ± 0.021,0.014 ± 0.04
HDF3CGF:CCL2/MCP-1,-0.0075 ± 0.0035,-0.005 ± 0.018,-0.068,0.034 ± 0.0085,0.0305 ± 0.0035,0.029 ± 0.014,-0.032 ± 0.0085,-0.059 ± 0.025,-0.117 ± 0.054,0.0235 ± 0.016,0.0285 ± 0.029,-0.0285 ± 0.016,0.027,-0.0065 ± 0.025,-0.0145 ± 0.00071,-0.009 ± 0.03,-0.0205 ± 0.04,0.001 ± 0.014,0.0225 ± 0.021,-0.009 ± 0.03
MyoF:CXCL8/IL-8,-0.003 ± 0.041,0.03 ± 0.0099,0.043,-0.0645 ± 0.056,-0.0895 ± 0.049,-0.163 ± 0.037,-0.0045 ± 0.0078,-0.0025 ± 0.016,0.02 ± 0.025,0.0095 ± 0.0078,0.017 ± 0.0071,0.022 ± 0.05,0.032 ± 0.068,0.03 ± 0.055,-0.0015 ± 0.016,-0.0075 ± 0.026,-0.015 ± 0.05,-0.0145 ± 0.033,0.016 ± 0.02,0.008 ± 0.0057
KF3CT:MMP-9,-0.006 ± 0.0028,-0.0275 ± 0.023,-0.032,0.0055 ± 0.005,-0.0495 ± 0.0035,-0.098 ± 0.027,-0.01 ± 0.02,-0.0045 ± 0.012,-0.022 ± 0.013,-0.005 ± 0.0014,0.0065 ± 0.032,-0.018 ± 0.0099,-0.0175 ± 0.023,-0.014 ± 0.041,-0.009 ± 0.014,-0.0055 ± 0.0035,0.017 ± 0.016,-0.013 ± 0.0071,-0.0065 ± 0.005,-0.01 ± 0.0028
BE3C:tPA,0 ± 0.0028,-0.006 ± 0.0014,0.019,0.186 ± 0.0057,0.192 ± 0.0099,0.176 ± 0.005,-0.036 ± 0.041,-0.056 ± 0.0014,-0.13 ± 0.018,0.04 ± 0.075,0.0035 ± 0.06,-0.026 ± 0.0071,-0.0035 ± 0.025,-0.0275 ± 0.032,-0.032 ± 0.054,-0.0405 ± 0.016,-0.046 ± 0.018,-0.019 ± 0.021,-0.0125 ± 0.061,0.0005 ± 0.005
